According to patent publication US20150190369A1, “QUERCETIN-3-GLUCOSIDE AND USES THEREOF” (priority 2012, published 2015):
Entries after “also recorded” stand apart in the source; their conditions may differ.

Experiments:
PCSK9 = assay: Semi-quantitative immunoblotting for cellular PCSK9 in Huh7 cells; assay type: cell-based, human
Procedure: At passage, Huh7 cells were routinely seeded at sub-confluence (˜10^6 cells/10-cm dish) in Dulbecco's modified Eagle's medium (DMEM) containing 10% fetal bovine serum (FBS) or LPDS (for experiments) and 50 μg/ml gentamycin. They were incubated overnight at 37° C., in a humidified 5% CO2-95% air atmosphere. Cells were treated or not with Q3G at defined concentrations and for defined lengths of time. Media were collected and centrifuged at 200 g for 5 min to sediment suspended cells; supernatants were collected and supplemented with 0.33 volumes of a 3×-concentrated PIC. Cell monolayers were rinsed with ice-cold phosphate-buffered saline (PBS); they were overlaid with […] the RIPA lysis buffer (50 mM Tris-HCl, pH 8, 150 mM NaCl, 1% NP-40, 0.5% Na-deoxycholate and 0.1% SDS) supplemented with 1× PIC. After 20 min in an ice bath, the lysates were centrifuged at 14,000 g and 4° C. for 20 min, and supernatants were collected. Conditioned media and lysates were stored at −20° C. until analysis.
Cell lysates were fractionated by SDS-PAGE and electrophoretically transferred onto a polyvinylidene fluoride membrane. The membrane was incubated with a goat antihuman LDLR, rabbit anti-PCSK9, or rabbit anti-SREBP-2 polyclonal antibody at 1:1000, 1:1500, and 1:200 dilutions, respectively, and then with a HRP-conjugated heterospecific secondary antibody against the primary Igs at a 1:2000 dilution. It was probed for HRP reaction using the Western Lightning Chemiluminescence Reagent Plus a chemiluminescence-based revelation kit. The signal was captured on X-ray film and immunoreactive bands analyzed by densitometry on a Syngene's ChemiGenius^2XE Bio Imaging System (Cambridge, Mass.) within the dynamic range of the instrument. The membrane was stripped and reprobed with the anti-β-actin monoclonal primary antibody at 1:20,000 dilution and HRP-conjugated rabbit anti-mouse IgG secondary antibody at a 1:5000 dilution. The densitometric values of β-actin bands were using for normalization of experimental samples. […]

Huh7 cells = assay: LDL uptake assay with bodipy-LDL; assay type: cell-based, human; settings: Huh7, 5 μM Q3G for 24 h
Procedure: Huh7 cells were seeded in 96-well black-bottom plates at 4×10^4 cells/well in 0.1 ml complete medium and allowed to attach by overnight incubation at 37° C. They were rinsed with PBS-D, overlaid with 0.1 ml of DMEM/10% LPDS and incubated at 37° C. for 24 h. After a PBS-D rinse, they were overlaid with 0.1 ml DMEM/0.5% LPDS containing or not 5 μM Q3G and incubated 37° C. for 24 h. To assay for LDL uptake ability, cells were rinsed, first with pre-warmed (37° C.) PBS-D, then with pre-warmed DMEM/0.5% LPDS. They were overlaid with 75 μl of the latter medium containing […] bodipy-LDL, and then incubated at 37° C. for 15 min or 30 min to allow LDLR-mediated endocytosis of the fluorescent lipoprotein. […] Intracellular fluorescence was measured in a SpectraMax Gemini XS fluorescence plate reader (Molecular Devices) at the excitation and emission wavelengths of 485 and 535 nm, respectively. Non-specific fluorescence was measured by incubating cells in medium containing bodipy-LDL (20 μg/ml) and a 12.5× excess of non-fluorescent LDL (250 μg/ml).
To verify this prediction, cells were incubated overnight in medium supplemented with LPDS to promote expression of the LDLR; they were then treated with 5 μM Q3G for 24 h and exposed to fluorescent bodipy-LDL for 15 or 30 min; after washing, accumulated intracellular LDL was measured by fluorescence spectrometry.

MIN6 β-cells = assay: GSIS assay (glucose-stimulated insulin secretion, insulin ELISA); assay type: cell-based, mouse; settings: MIN6, stimulation with 18 mM glucose, 30 min
Procedure: The assays for PCSK9 and insulin were conducted as prescribed by kit manufacturers, using a Thermo Scientific plate reader. For example, PCSK9 levels in conditioned media were measured using the human PCSK9 ELISA kit from Circulex, as specified the manufacturer. The assay was a sandwich immunoassay using two antibodies (A and B) recognizing different PCSK9 epitopes. Briefly, aliquot of diluted media were overlaid on wells coated with anti-PCSK9 antibody A. After 1-h incubation, the wells were washed, overlaid with a solution of HRP-conjugated anti-PCSK9 antibody B, and incubated for 1 h. They were washed again, and overlaid with a solution of tetra-methylbenzidine as a chromogenic substrate for HRP. After 15 min, the reaction was stopped with […] and the absorbance of the reaction mixtures measured by spectrophotometry at 450 nm. All the steps were performed at room temperature. Standards consisted of recombinant human PCSK9.
Cells were seeded and grown to 80% confluence. Prior to GSIS assay, fresh medium containing 3 mM Glucose and 10% FBS medium (low-glucose medium or LGM) without or with Q3G was substituted and incubation resumed for 6 h to adapt the cells to low glucose. Fresh LGM without or with Q3G was substituted and supplemented or not with glucose to the final concentration of 18 mM. […]

Which results are given for `O=c1c(O[C@@H]2O[C@H](CO)[C@@H](O)[C@H](O)[C@H]2O)c(-c2ccc(O)c(O)c2)oc2cc(O)cc(O)c12` [Q3G, quercetin-3-O-β-D-glucoside]?
lag before PCSK9 accumulation in the cells (PCSK9; Huh7, 2 μM Q3G, time course): 3 h; amount of cellular PCSK9 (PCSK9; Huh7, 24 h, co-treatment 5 μM Q3G with simvastatin 0.2 and 1 μM): further increased; increase of PCSK9 protein in the cells (PCSK9; Huh7, 24 h, highest Q3G concentration tested (0 to 10 μM)): 1.9 ×; accumulated intracellular LDL versus untreated cells (Huh7 cells; bodipy-LDL for 15 min): 4 fold; accumulated intracellular LDL versus untreated cells (Huh7 cells; bodipy-LDL for 30 min): 2.5 fold; glucose-stimulated insulin secretion, treated versus untreated cells (MIN6 β-cells): comparable; also recorded: without affecting
